Data taken from US20080221205A1, “FURAN DERIVATIVES FOR PREVENTING AND CURING OSTEOPOROSIS AND PHARMACEUTICAL COMPOSITIONS CONTAINING THE SAME” (priority 2002, published 2008).
Entries after “also recorded” stand apart in the source; their conditions may differ.

Experiments:
osteoprotegerin (OPG) = assay: Osteoprotegerin (OPG) expression in MG63 cells, OPG ELISA; assay type: cell-based, human; conditions: concentration not given
Procedure: In the following tests, three kinds of cell lines were used. The human osteosarcoma cell lines, MG-63 (ATCC No. CRL-1427) and HOS (ATCC No. CRL-1543), and mouse muscle C2C12 muscle cells (ATCC No. CRL-1772) were purchased from ATCC (American Type Culture Collection, Rockville, USA), and cultured in Dulbecco's modified Eagle's medium (DMEM) supplemented with 10% fetal bovine serum (FBS).
When MG63 cells grew confluently on 96-well plates, […] of FBS-free DMEM containing various concentrations of the Compound 1 was added to each well. After incubation for 16 hrs, the culture supernatants were collected. The amount of OPG released into the medium was determined using an OPG ELISA kit.

[1] = tested on: ovariectomized white mice; assay: Preventive effect 1 on osteoporosis: tibia histology, oral administration after ovariectomy; assay type: in vivo; conditions: 10 mg/day, four weeks from ovariectomy, versus untreated control
Procedure: In order to evaluate effects of the compound of the present invention on treatment and prevention of osteoporosis, female white mice with osteoporosis induced by ovariectomy were used as a disease model. After ovariectomy, mice were administered with the compound of the present invention. Tibias were dissected from the mice, and observed histologically.
After anesthetizing female white mice with 100 mg/kg of Ketamine (Ketara) and 0.15 ml/kg of 2% Xylazine (Rompun), the lumbar dorsum is shaved bilaterally and the exposed skin was prepared for aseptic surgery by a 10% povidone-iodine scrub followed by a 70% alcohol wipe.
A 1-cm incision was made in the central region of the abdomen, and the ovary was identified along with the uterus with caution not to damage the main organs such as the liver and diaphragm. After ligating the uterus with a thread for suturing, the exposed ovary was severed toward both sides and removed. Thereafter, each organ was relocated to its original position, and the incision was closed with a thread for suturing in an interrupted pattern. […]
The daily dosage of the Compound 1 per female white mouse was determined based on 250 g body weight. […] With caution not to exchange the water bottles between the groups, everyday, the number of mice was recorded, and the mixture was prepared based on the number of mice. […]

osteoclasts = assay: Resorption activity of osteoclasts on calcium phosphate-coated plates (resorption pit area); assay type: cell-based, mice; conditions: concentration not given
Procedure: In order to investigate the effects of the Compound 1 on differentiation and activity of osteoclasts, when differentiation of osteoclast progenitors was induced, the activity of Tartrate-resistant acid phosphatase (TRAP) as an osteoclastic marker enzyme was investigated, and, when differentiated osteoclasts were cultured on calcium phosphate-coated plates (OAAS, OCT Inc.), resorption activity (formation of resorption pits) were measured.
First, bone marrow cells were isolated, as follow. After sacrificing 7-9 week female mice by cervical dislocation, femur and tibia were excised aseptically while removing attached soft tissues. After cutting both ends of long bones, 1 ml of an enzyme solution, containing 0.1% collagenase (Gibco), 0.05% trypsin and 0.5 mM EDTA (Gibco), was injected to the bone marrow cavity at one end using a syringe with a 26-guage needle, and bone marrow was then collected. After shaking the recovered bone marrow for 30 min, bone marrow cells were collected, and cultured in α-minimum essential medium (α-MEM) supplemented with 10% FBS for 24 hrs. […]
The differentiated osteoclasts were cultured on calcium phosphate-coated plates (OAASTM, OCT, Korea) in order to evaluate resorption activity of the cells. […] After washing again with distilled water and drying the plates, the area of formed resorption pits was calculated by means of an Image Pro Plus software. […]

## O=Cc1ccc(CO)o1 [Compound 1, 5-hydroxymethylfuran-2-carboxyaldehyde]
Osteoprotegerin (OPG)
  Expression of osteoprotegerin (OPG) in osteoblasts (in words): increases the expression of osteoprotegerin (OPG)
[1]
  Trabecular and cortical bone of tibia, light microscopy: trabecular bone loss was not observed; also recorded: marked increase in the cortical and trabecualr bone; also recorded: no trabecular bone loss
osteoclasts
  Area of resorption pits compared to control: about 50%
osteoclasts; listed as compound prepared in Example 1
  Area of resorption pits compared to control: inhibit bone resorption activity of osteoclasts
